According to ChEMBL document CHEMBL5380798, “Novel Strategy To Inhibit Transthyretin Amyloidosis via the Synergetic Effect of Chemoselective Acylation and Noncovalent Inhibitor Release” (J Med Chem, 2023):

Columns and labels:
[1] = test system: Transthyretin (Homo sapiens), P02766 [V50M]; experiment: (§1) Inhibition of recombinant Transthyretin V30M mutant (unknown origin) expressed in Escherichia coli expression system assessed as acid mediated fibril formation at 1.8 uM preincubated for 2 hrs followed by addition of acetate buffer solution and measured after 72 hrs by UV-vis spectrophotometry relative to control; conditions: time 74.0 hrs, values are per cent of control
[2] = test system: Transthyretin (Homo sapiens), P02766 [V50M]; experiment: as §1, with “3.6” for “1.8”; conditions: time 74.0 hrs, values are per cent of control
[3] = target: T1, Transthyretin (Homo sapiens, UniProt P02766); experiment: as §1, with “recombinant wild-type” for “recombinant”, “Transthyretin” for “Transthyretin V30M mutant”; conditions: time 74.0 hrs, values are per cent of control
[4] = target: T1, Transthyretin; experiment: as §1, with “recombinant wild-type” for “recombinant”, “Transthyretin” for “Transthyretin V30M mutant”, “3.6” for “1.8”; conditions: time 74.0 hrs, values are per cent of control
[5] = target: T1, Transthyretin; experiment: Inhibition of recombinant wild-type Transthyretin (unknown origin) expressed in Escherichia coli expression system assessed as acid mediated fibril formation at 1.8 uM measured after 120 hrs by UV-vis spectrophotometry relative to control
[6] = test system: Transthyretin (Homo sapiens), P02766 [V50M]; experiment: Inhibition of recombinant Transthyretin V30M mutant (unknown origin) assessed as acid mediated fibril formation at 7.2 uM relative to control
[7] = target: T1, Transthyretin
Description: Covalent inhibition of urea-induced Transthyretin denaturation in human plasma preincubated for 1 hr followed by urea addition by Western blot analysis

| response, % of control [1] [%] | response, % of control [2] [%] | response, % of control [3] [%] | response, % of control [4] [%] | inhibition [5] [%] | inhibition [6] [%] | IC50 [7] [µM] | SMILES |
| --- | --- | --- | --- | --- | --- | --- | --- |
| 53.8 | 21 | 40.9 | 11.1 | 46 |  |  | O=C(O)c1ccc2nc(-c3cc(Cl)cc(Cl)c3)oc2c1 |
| 18 | 2.9 | 2.2 | 0.3 |  |  |  | CCC(C)C(=O)Oc1c(Br)cc(/C=C/c2c(C)n[nH]c2C)cc1Br (stereo unspecified) |
| 41.7 | 11.1 | 17.3 | 9.2 |  | 39 |  | Cc1n[nH]c(C)c1/C=C/c1cc(Br)c(O)c(Br)c1 |
| 15.7 | 3.9 | 5.7 | 0.2 | < 5 |  | 0.45 | Cc1n[nH]c(C)c1/C=C/c1cc(Br)c(OC(=O)c2ccc(F)cc2)c(Br)c1 |
| 13.8 | 3 | 0.8 | 0.3 | < 5 |  | 0.47 | Cc1n[nH]c(C)c1/C=C/c1cc(Br)c(OC(=O)c2c(F)cc(F)cc2F)c(Br)c1 |
| 14.8 | 3.5 | 1.2 | 0.3 | < 5 |  | 0.57 | Cc1n[nH]c(C)c1/C=C/c1cc(Br)c(OC(=O)c2c(F)cccc2F)c(Br)c1 |
| 23.5 | 6.6 | 2.7 | 0.3 |  |  |  | CCCC(=O)Oc1c(Br)cc(/C=C/c2c(C)n[nH]c2C)cc1Br |
